Source: patent publication US20240360165A1, “INHIBITORS OF CYCLIN DEPENDENT KINASE 7 (CDK7)” (Syros Pharmaceuticals, Inc., priority 2016, published 2024)
pIC50: −log10 of the molar value. Where two headings read alike, the source gives them in different places.

Assays:
[1] = target: T1, CDK12 (aa686-1082)/Cyclin K complex (Homo sapiens, UniProt Q9NYV4); experiment: CDK12 inhibition assay (Caliper/LabChip EZ Reader kinase assay); assay type: biochemical; conditions: Table 1; CDK12 (aa686-1082)/Cyclin K 50 nM, ATP 2 mM, 3 hr at 27° C.
T1 construct: CDK12 (aa686-1082)/Cyclin K complex
T1 sequence (Q9NYV4 686-1082, species assumed): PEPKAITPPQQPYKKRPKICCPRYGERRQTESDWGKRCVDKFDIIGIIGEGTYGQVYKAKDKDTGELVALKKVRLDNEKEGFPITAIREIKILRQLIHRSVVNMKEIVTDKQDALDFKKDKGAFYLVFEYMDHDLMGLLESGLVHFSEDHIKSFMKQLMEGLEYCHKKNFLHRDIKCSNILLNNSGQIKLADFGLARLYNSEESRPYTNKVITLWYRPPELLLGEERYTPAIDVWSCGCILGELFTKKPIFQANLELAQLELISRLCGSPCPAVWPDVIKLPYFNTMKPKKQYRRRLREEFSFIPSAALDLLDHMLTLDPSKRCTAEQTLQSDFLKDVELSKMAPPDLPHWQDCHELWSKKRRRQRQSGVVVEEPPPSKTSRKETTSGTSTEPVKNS
T1 sequence (O75909 whole entry partner, species assumed, the tested form may be a part): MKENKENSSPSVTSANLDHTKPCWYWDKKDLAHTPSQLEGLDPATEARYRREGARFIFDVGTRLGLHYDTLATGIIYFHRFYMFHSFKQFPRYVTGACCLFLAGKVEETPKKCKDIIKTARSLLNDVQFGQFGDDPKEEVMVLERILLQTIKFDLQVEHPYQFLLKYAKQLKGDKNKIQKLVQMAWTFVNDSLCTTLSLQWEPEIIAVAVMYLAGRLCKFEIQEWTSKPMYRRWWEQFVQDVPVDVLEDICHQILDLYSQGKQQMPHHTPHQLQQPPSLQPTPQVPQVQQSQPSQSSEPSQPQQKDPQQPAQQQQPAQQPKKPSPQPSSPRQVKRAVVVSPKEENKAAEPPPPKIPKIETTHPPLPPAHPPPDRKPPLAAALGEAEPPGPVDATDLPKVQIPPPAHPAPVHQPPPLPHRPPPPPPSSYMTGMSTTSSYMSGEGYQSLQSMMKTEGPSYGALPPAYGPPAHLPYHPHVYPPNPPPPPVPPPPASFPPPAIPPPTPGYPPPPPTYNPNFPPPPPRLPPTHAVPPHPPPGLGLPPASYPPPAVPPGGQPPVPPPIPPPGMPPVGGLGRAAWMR

CDK2/Cyclin E1 complex = CDK2/Cyclin E1 complex (Homo sapiens, UniProt P24941); experiment: CDK2 inhibition assay (Caliper/LabChip EZ Reader kinase assay); assay type: biochemical; conditions: Table 1; CDK2/Cyclin E1 0.5 nM, ATP 2 mM, 35 min at 27° C.
Method in brief: (§1)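 Caliper/LabChip EZ Reader mobility-shift assays. CDK9/Cyclin T1 at 8 nM with 2 μM 5-FAM-CDK9tide peptide and 10 mM MgCl2; CDK2/Cyclin E1 at 0.5 nM with 2 μM 5-FAM-CDK7tide and 2 mM MgCl2.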

[2] = target: CDK7/Cyclin H/MAT1 complex (Homo sapiens, UniProt P50613); experiment: CDK7 inhibition assay (Caliper/LabChip EZ Reader kinase assay); assay type: biochemical; conditions: Table 1; CDK7/Cyclin H/MAT1 6 nM, ATP 2 mM, 35 min at 27° C.
Sequence of CDK7/Cyclin H/MAT1 complex (P50613 whole entry, species assumed): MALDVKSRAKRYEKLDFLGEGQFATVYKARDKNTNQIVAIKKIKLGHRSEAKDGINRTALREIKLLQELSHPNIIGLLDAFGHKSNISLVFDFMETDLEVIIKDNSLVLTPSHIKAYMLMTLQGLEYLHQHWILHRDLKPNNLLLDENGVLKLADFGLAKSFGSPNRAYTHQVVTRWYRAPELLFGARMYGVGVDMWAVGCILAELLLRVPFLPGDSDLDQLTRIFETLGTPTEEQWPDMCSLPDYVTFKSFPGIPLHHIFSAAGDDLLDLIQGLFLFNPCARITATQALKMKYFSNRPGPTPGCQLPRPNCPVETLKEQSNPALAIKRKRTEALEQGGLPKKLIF
Sequence of CDK7/Cyclin H/MAT1 complex (P51946 whole entry partner, species assumed): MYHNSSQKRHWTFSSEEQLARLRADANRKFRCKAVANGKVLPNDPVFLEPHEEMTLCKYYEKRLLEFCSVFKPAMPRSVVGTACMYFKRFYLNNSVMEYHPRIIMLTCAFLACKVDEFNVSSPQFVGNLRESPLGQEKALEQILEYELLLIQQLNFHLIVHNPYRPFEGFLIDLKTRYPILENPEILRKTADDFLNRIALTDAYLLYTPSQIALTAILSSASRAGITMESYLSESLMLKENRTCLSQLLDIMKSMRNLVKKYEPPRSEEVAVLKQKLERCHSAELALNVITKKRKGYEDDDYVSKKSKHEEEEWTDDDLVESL
Sequence of CDK7/Cyclin H/MAT1 complex (P51948 whole entry partner, species assumed): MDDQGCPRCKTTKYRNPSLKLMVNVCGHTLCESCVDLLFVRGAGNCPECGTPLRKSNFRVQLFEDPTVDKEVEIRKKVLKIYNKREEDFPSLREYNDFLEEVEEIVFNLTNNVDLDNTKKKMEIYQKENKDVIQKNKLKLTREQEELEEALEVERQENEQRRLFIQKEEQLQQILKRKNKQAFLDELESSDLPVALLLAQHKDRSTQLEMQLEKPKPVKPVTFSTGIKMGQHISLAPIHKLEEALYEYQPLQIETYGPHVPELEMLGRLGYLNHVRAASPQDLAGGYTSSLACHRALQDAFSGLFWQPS
Method in brief: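 A Perkin Elmer Caliper/LabChip EZ Reader (Waltham, MA) platform served as the basis for this CDK7 kinase inhibition assay. The work was carried out by Biortus Biosciences, located in Jiangyin, Jiangsu Province, P.R. of China. Each CDK studied had its own kinase assay, and compounds were evaluated for their ability to block CDK7 activity.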

CDK9/Cyclin T1 complex = CDK9/Cyclin T1 complex (Homo sapiens, UniProt P50750); experiment: CDK9 inhibition assay (Caliper/LabChip EZ Reader kinase assay); assay type: biochemical; conditions: Table 1; CDK9/Cyclin T1 8 nM, ATP 2 mM, 15 min at 27° C.
Sequence of CDK9/Cyclin T1 complex (P50750 whole entry, species assumed): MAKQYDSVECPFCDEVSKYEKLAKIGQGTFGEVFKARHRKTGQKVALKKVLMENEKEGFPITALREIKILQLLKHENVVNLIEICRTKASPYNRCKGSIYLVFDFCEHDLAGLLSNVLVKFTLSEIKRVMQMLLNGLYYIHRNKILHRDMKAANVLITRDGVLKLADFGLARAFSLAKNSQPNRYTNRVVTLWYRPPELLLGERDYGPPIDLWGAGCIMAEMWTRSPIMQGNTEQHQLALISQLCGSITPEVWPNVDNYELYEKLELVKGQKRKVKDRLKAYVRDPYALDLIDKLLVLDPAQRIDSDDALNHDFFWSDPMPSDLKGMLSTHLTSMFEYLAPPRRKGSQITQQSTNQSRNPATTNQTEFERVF
Sequence of CDK9/Cyclin T1 complex (O60563 whole entry partner, species assumed): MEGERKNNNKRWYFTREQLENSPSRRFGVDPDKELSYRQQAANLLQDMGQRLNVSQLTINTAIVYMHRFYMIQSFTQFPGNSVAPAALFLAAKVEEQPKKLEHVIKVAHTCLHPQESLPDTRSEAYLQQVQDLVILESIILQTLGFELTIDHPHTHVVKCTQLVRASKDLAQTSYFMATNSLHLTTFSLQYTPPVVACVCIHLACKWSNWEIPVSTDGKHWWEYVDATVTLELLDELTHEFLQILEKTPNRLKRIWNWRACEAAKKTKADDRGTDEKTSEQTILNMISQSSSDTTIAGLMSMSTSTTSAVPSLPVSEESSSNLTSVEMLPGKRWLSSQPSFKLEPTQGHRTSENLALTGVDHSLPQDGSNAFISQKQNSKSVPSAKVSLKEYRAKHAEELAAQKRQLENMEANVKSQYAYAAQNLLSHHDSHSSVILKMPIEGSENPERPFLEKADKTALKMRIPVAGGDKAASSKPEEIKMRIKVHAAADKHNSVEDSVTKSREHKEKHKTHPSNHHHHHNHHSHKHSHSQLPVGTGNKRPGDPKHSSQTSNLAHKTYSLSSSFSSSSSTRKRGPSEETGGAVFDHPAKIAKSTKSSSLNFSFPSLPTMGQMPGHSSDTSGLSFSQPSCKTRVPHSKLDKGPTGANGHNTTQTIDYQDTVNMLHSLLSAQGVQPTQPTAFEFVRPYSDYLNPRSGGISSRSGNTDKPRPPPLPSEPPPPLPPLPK
Method in brief: as §1

A673 cells = experiment: Inhibition of proliferation of A673 cells (CyQUANT, 72 hour); assay type: cell-based, human; conditions: A673 cells, 72 hour, CyQUANT, read-out: Inhibition of Proliferation of A673 Cells (calculated IC50)
Method in brief: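 Human Ewing's sarcoma A673 cells in DMEM with 10% FBS and 1 mM sodium pyruvate, 37° C, 5% CO2, treated 72 h with compound from 4 μM to […] (0.5 log dilutions). Antiproliferative effect read by CyQUANT assay.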

SMILES | pIC50 [1] | pIC50 (CDK2/Cyclin E1 complex) | pIC50 [2] | pIC50 (CDK9/Cyclin T1 complex) | pIC50 (A673 cells; Homo sapiens, A673, 72 h) | pIC50 (A673 cells)
CC(=O)c1cnc(N[C@H]2CCCNC2)nc1-c1c[nH]c2ccccc12 [Compound 208] | 5.30 to 6.70 | < 5.30 | 6.70 to 7.70 | < 5.30 | 6.70 to 7.70 | –
CS(=O)(=O)Cc1ccc2c(-c3nc(N[C@H]4CCCNC4)ncc3C(F)(F)F)c[nH]c2c1 [Compound 219, 4-[6-(methylsulfonylmethyl)-1H-indol-3-yl]-N-[(3S)-3-piperidyl]-5-(trifluoromethyl) pyrimidin-2-amine] | 5.30 to 6.70 | 5.30 to 6.70 | > 7.70 | 5.30 to 6.70 | 6.70 to 7.70 | –
CCc1cnc(N[C@H]2CCCNC2)nc1-c1c[nH]c2cc(S(C)(=O)=O)ccc12 [Compound 271] | < 5.30 | < 5.30 | 6.70 to 7.70 | < 5.30 | 5.30 to 6.70 | –
CC(O)c1cnc(NC2CCCNC2)nc1-c1c[nH]c2ccccc12 (single isomer, unassigned) [Compound 239] | < 5.30 | < 5.30 | 5.30 to 6.70 | < 5.30 | – | 5.30 to 6.70
N#Cc1ccc2c(-c3nc(N[C@H]4CCCNC4)ncc3C(F)(F)F)c[nH]c2c1C#N [Compound 258, 3-[2-[[(3S)-3-piperidyl]amino]-5-(trifluoromethyl)pyrimidin-4-yl]-1H-indole-6,7-dicarbonitrile] | 5.30 to 6.70 | 5.30 to 6.70 | > 7.70 | 5.30 to 6.70 | 6.70 to 7.70 | –
FC(F)(F)c1cnc(N[C@H]2CCCNC2)nc1-c1c[nH]c2cc(-c3cc[nH]n3)ccc12 [Compound 291, N-[(3S)-3-piperidyl]-4-[6-(1H-pyrazol-3-yl)-1H-indol-3-yl]-5-(trifluoromethyl) pyrimidin-2-amine] | 5.30 to 6.70 | < 5.30 | 6.70 to 7.70 | 5.30 to 6.70 | – | 6.70 to 7.70
N#Cc1cc2[nH]cc(-c3nc(N[C@H]4CCCNC4)ncc3C(F)(F)F)c2cc1F [Compound 197, 5-fluoro-3-[2-[[(3S)-3-piperidyl]amino]-5-(trifluoromethyl)pyrimidin-4-yl]-1H-indole-6-carbonitrile] | 5.30 to 6.70 | 5.30 to 6.70 | > 7.70 | 5.30 to 6.70 | > 7.70 | –
CC1(C)CNC[C@@H](Nc2ncc(C(F)(F)F)c(-c3c[nH]c4ccccc34)n2)C1 [Compound 243, N-[(3S)-5,5-dimethyl-3-piperidyl]-4-(1H-indol-3-yl)-5-(trifluoromethyl) pyrimidin-2-amine] | 6.70 to 7.70 | 5.30 to 6.70 | > 7.70 | 5.30 to 6.70 | > 7.70 | –
Cc1nn(C)cc1-c1ccc2c(-c3nc(N[C@H]4CCCNC4)ncc3C(F)(F)F)c[nH]c2c1 [Compound 226, 4-[6-(1,3-dimethylpyrazol-4-yl)-1H-indol-3-yl]-N-[(3S)-3-piperidyl]-5-(trifluoromethyl) pyrimidin-2-amine] | 5.30 to 6.70 | 5.30 to 6.70 | > 7.70 | 5.30 to 6.70 | > 7.70 | –
CNC(=O)C1CNCC(Nc2ncc(C(F)(F)F)c(-c3c[nH]c4ccccc34)n2)C1 (single isomer, unassigned) [Compound 252] | < 5.30 | 5.30 to 6.70 | 6.70 to 7.70 | < 5.30 | – | 5.30 to 6.70
CN1CCC[C@H](Nc2ncc(Cl)c(-c3c[nH]c4ccccc34)n2)C1 [Compound 136] | 5.30 to 6.70 | 5.30 to 6.70 | > 7.70 | 5.30 to 6.70 | 6.70 to 7.70 | –
CC[C@@H]1CC[C@H](Nc2ncc(C(F)(F)F)c(-c3c[nH]c4ccccc34)n2)CN1 [Compound 211] | 5.30 to 6.70 | 5.30 to 6.70 | 6.70 to 7.70 | 5.30 to 6.70 | 6.70 to 7.70 | –
CC1(C)CCNC[C@@H]1Nc1ncc(C(F)(F)F)c(-c2c[nH]c3ccccc23)n1 (single isomer, unassigned) [Compound 209] | < 5.30 | < 5.30 | 5.30 to 6.70 | < 5.30 | 6.70 to 7.70 | –
COC(C)c1cnc(N[C@H]2CCCNC2)nc1-c1c[nH]c2ccccc12 (some centres unmarked) [Compound 247] | < 5.30 | < 5.30 | 5.30 to 6.70 | < 5.30 | 5.30 to 6.70 | –
FC1(F)CNC[C@@H](Nc2ncc(C(F)(F)F)c(-c3c[nH]c4ccccc34)n2)C1 [Compound 236, N-[(3S)-5,5-difluoro-3-piperidyl]-4-(1H-indol-3-yl)-5-(trifluoromethyl) pyrimidin-2-amine] | 5.30 to 6.70 | 5.30 to 6.70 | > 7.70 | 5.30 to 6.70 | 6.70 to 7.70 | –
Cc1nc(-c2ccc3c(-c4nc(N[C@H]5CCCNC5)ncc4C(F)(F)F)c[nH]c3c2)nn1C [Compound 245, 4-[6-(1,5-dimethyl-1,2,4-triazol-3-yl)-1H-indol-3-yl]-N-[(3S)-3-piperidyl]-5-(trifluoromethyl) pyrimidin-2-amine] | 5.30 to 6.70 | 5.30 to 6.70 | > 7.70 | < 5.30 | 6.70 to 7.70 | –
FC(F)(F)c1cnc(NC2CNCc3ccccc32)nc1-c1c[nH]c2ccccc12 (centres unmarked) [Compound 216] | < 5.30 | 5.30 to 6.70 | 5.30 to 6.70 | < 5.30 | – | 5.30 to 6.70
CCc1cnc(N[C@H]2CCCNC2)nc1-c1n[nH]c2c(F)cccc12 [Compound 143, (S)-5-ethyl-4-(7-fluoro-1H-indazol-3-yl)-N-(piperidin-3-yl)pyrimidin-2-amine] | 5.30 to 6.70 | 5.30 to 6.70 | > 7.70 | 5.30 to 6.70 | > 7.70 | –
Cc1cn(-c2cccc3c(-c4nc(N[C@H]5CCCNC5)ncc4C(F)(F)F)c[nH]c23)cn1 [Compound 172] | 5.30 to 6.70 | 5.30 to 6.70 | > 7.70 | 5.30 to 6.70 | > 7.70 | –
Cc1n[nH]cc1-c1ccc2c(-c3nc(N[C@H]4CCCNC4)ncc3C(F)(F)F)c[nH]c2c1 [Compound 229, 4-[6-(3-methyl-1H-pyrazol-4-yl)-1H-indol-3-yl]-N-[(3S)-3-piperidyl]-5-(trifluoromethyl) pyrimidin-2-amine] | 5.30 to 6.70 | 5.30 to 6.70 | > 7.70 | 5.30 to 6.70 | > 7.70 | –
N#Cc1cnc(N[C@H]2CCCNC2)nc1-c1c[nH]c2ccccc12 [Compound 157] | 5.30 to 6.70 | 5.30 to 6.70 | > 7.70 | 5.30 to 6.70 | > 7.70 | –
CC(O)c1cnc(N[C@H]2CCCNC2)nc1-c1c[nH]c2ccccc12 (mixture of isomers) [Compound 234] | < 5.30 | < 5.30 | 5.30 to 6.70 | < 5.30 | > 7.70 | –
CC(C)c1cnc(N[C@H]2CCCNC2)nc1-c1n[nH]c2nc(C#N)ccc12 [Compound 276, (S)-3-(5-isopropyl-2-(piperidin-3-ylamino)pyrimidin-4-yl)-1H-pyrazolo[3,4-b]pyridine-6-carbonitrile] | < 5.30 | < 5.30 | 6.70 to 7.70 | < 5.30 | 5.30 to 6.70 | –
FC(F)(F)c1cnc(N[C@H]2CCCNC2)nc1-c1c[nH]c2cc(-c3ncc[nH]3)ccc12 [Compound 202, 4-[6-(1H-imidazol-2-yl)-1H-indol-3-yl]-N-[(3S)-3-piperidyl]-5-(trifluoromethyl) pyrimidin-2-amine] | < 5.30 | 5.30 to 6.70 | > 7.70 | 5.30 to 6.70 | 6.70 to 7.70 | –
c1ccc2c(-c3nc(N[C@H]4CCCNC4)ncc3C3CC3)c[nH]c2c1 [Compound 135] | < 5.30 | < 5.30 | 6.70 to 7.70 | < 5.30 | 5.30 to 6.70 | –
FC(F)(F)c1cnc(N[C@H]2CCCNC2)nc1-c1c[nH]c2cc(-c3ccnnc3)ccc12 [Compound 230, N-[(3S)-3-piperidyl]-4-(6-pyridazin-4-yl-1H-indol-3-yl)-5-(trifluoromethyl) pyrimidin-2-amine] | 5.30 to 6.70 | 5.30 to 6.70 | > 7.70 | 5.30 to 6.70 | 6.70 to 7.70 | –
O=C([C@H]1CC[C@H](Nc2ncc(C(F)(F)F)c(-c3c[nH]c4ccccc34)n2)CN1)N1CCCC1 [Compound 228] | 5.30 to 6.70 | 5.30 to 6.70 | > 7.70 | 5.30 to 6.70 | 6.70 to 7.70 | –
FC(F)(F)c1cnc(N[C@@H]2CNC[C@H](c3nnc4ccccn34)C2)nc1-c1c[nH]c2ccccc12 (relative stereo) [Compound 266] | 5.30 to 6.70 | 5.30 to 6.70 | 6.70 to 7.70 | 5.30 to 6.70 | – | 6.70 to 7.70
